Where two headings read alike, the source gives them in different places.
Legend:
[1] = test system: pancreatin (Panzytrat® 40,000); assay: Cleavage experiments with pancreatin in water, acid number over time; format: in vitro ADME, porcine; details: test repeated on individual glycerides, 50° C.
[2] = test system: porcine pancreatic lipase type II (PPL type II); assay: Cleavage experiments with and without porcine pancreatic lipase in FaSSIF medium; details: for with enzyme, 24 h, 35° C. / without enzyme 24 h, 35° C. / before splitting 0 h: the 14th table; for with enzyme, 24 h, 35° C.: FaSSIF medium pH 6.5, 1 wt.-% porcine pancreatic lipase type II; for without enzyme 24 h, 35° C.: FaSSIF medium pH 6.5, without enzyme; for before splitting 0 h: FaSSIF medium
Experimental: (§1) Further Cleavage with Bowl Medium: FaSSIF Medium • The FaSSIF medium is prepared according to the previous test according to the manufacturer's instructions. • The resulting sample is divided into two batches of equal size. 10 wt.-% of the ternary glyceride mixture of mono-, di- and triglycerides of 3-hydroxybutyric acids according to the invention is dissolved in each FaSSIF medium and left in a water bath at 35° C. for 24 hours.

[3] = test system: Panzytrat® 40,000 (pancreatin); assay: Cleavage experiments with and without Panzytrat 40,000 in FaSSGF medium (simulates the stomach, pH 1.6); details: for change of content in FaSSGF medium: pH 1.6, 35° C., 24 hours, both with and without pancreatin; for share in chromatogram, FaSSGF m.P. 24 h, 35° C. / share in chromatogram, FaSSGF o.P. 24 h, 35° C. / share in chromatogram, before splitting: the 11th table; for share in chromatogram, FaSSGF m.P. 24 h, 35° C. / share in chromatogram, FaSSGF o.P. 24 h, 35° C.: FaSSGF (stomach, pH = 1.6); for share in chromatogram, FaSSGF m.P. 24 h, 35° C.: with Panzytrat; for share in chromatogram, FaSSGF o.P. 24 h, 35° C.: without Panzytrat; for share in chromatogram, before splitting: starting mixture (crude high-boiling fraction) before splitting; for before splitting: the 12th table, FaSSGF medium
Experimental: (§2) For the cleavage experiments under near-body conditions two media are investigated: • FaSSGF, which simulates the stomach • FaSSIF, which simulates the intestinal tract
(§3) In addition, in some experiments porcine pancreas is added (Panzytrat® 40,000, Fa. Allergan).
(§4) Cleavage with Gastric Medium: FaSSGF Medium • A so-called FaSSGF medium is prepared according to the manufacturer's specifications from the commercially available corresponding composition (available from Biorelevant, Ltd., Great Britain). • The resulting sample is divided into two batches of equal size. 10 wt.-% of the ternary glyceride mixture based on mono-, di- and triglycerides of 3-hydroxybutyric acid, as described hereinabove, is dissolved in each FaSSGF medium and left in a water bath at 35° C. for 24 hours.

[4] = test system: Panzytrat® 40,000 (pancreatin); assay: Cleavage experiments with and without Panzytrat 40,000 in FaSSIF medium (simulates the intestinal tract, pH 6.5); details: for share in chromatogram, FaSSIF 0 h, Start / share in chromatogram, FaSSIF m.P. 24 h, 35° C. / share in chromatogram, FaSSIF o.P. 24 h, 35° C.: the 11th table, FaSSIF (bowel, pH = 6.5); for share in chromatogram, FaSSIF m.P. 24 h, 35° C.: with Panzytrat; for share in chromatogram, FaSSIF o.P. 24 h, 35° C.: without Panzytrat; for with Panzytrat 24 h, 35° C. / without Panzytrat 24 h, 35° C. / before splitting 0 h: the 13th table, in %; for with Panzytrat 24 h, 35° C.: FaSSIF medium pH 6.5, 1 wt.-% Panzytrat 40,000, 24 h; for without Panzytrat 24 h, 35° C.: FaSSIF medium pH 6.5, without Panzytrat; for before splitting 0 h: FaSSIF medium; for change of content in FaSSIF medium: pH 6.5, 35° C., 24 hours, with and without pancreatin
Experimental: as §2
(§5) Both media are from the company Biorelevant®, Ltd. in Great Britain. In addition, in some experiments porcine pancreas is added (Panzytrat® 40,000, Fa. Allergan).
(§6) Cleavage with Bowl Medium: FaSSIF Medium • The FaSSIF medium is prepared according to the manufacturer's instructions (Fa. Biorelevant, Ltd., Great Britain). • The sample obtained is divided into two equally sized preparations. 10 wt.-% of the aforementioned glyceride mixture based on a mixture of mono-, di- and triglycerides of 3-hydroxybutyric acids is dissolved in each FaSSIF medium and left in a water bath at 35° C. for 24 hours.

[5] = test system: Panzytrat® 40,000 (pancreatin)
Experimental: as §2, §3, §4

[6] = test system: porcine pancreatic lipase type II (PPL type II)
Experimental: as §1

[7] = even if several grams are taken; acid and its salts; cited from earlier work
[8] = test system: Panzytrat® 40,000 (pancreatin); remark: listed apart in the source
Experimental: as §2, §5, §6

| before splitting ([5]; 0 h) | share in chromatogram, before splitting ([5]; 0 h, 10 wt.-%, pH 1.6) | share in chromatogram, FaSSGF o.P. 24 h, 35° C. ([5]; 24 h, 10 wt.-%, pH 1.6) | share in chromatogram, FaSSGF m.P. 24 h, 35° C. ([5]; pig, 24 h, 10 wt.-%, pH 1.6) | before splitting 0 h ([6]; 0 h, 10 wt.-%, pH 6.5) | without enzyme 24 h, 35° C. ([6]; 24 h, 10 wt.-%, pH 6.5) | SMILES | cleavage of the individual glycerides by pancreatin [1] | with enzyme, 24 h, 35° C. [2] | without enzyme 24 h, 35° C. [2] | before splitting 0 h [2] | share in chromatogram, FaSSGF m.P. 24 h, 35° C. [3] | share in chromatogram, FaSSGF o.P. 24 h, 35° C. [3] | share in chromatogram, before splitting [3] | before splitting [3] | share in chromatogram, FaSSIF 0 h, Start [4] | share in chromatogram, FaSSIF m.P. 24 h, 35° C. [4] | share in chromatogram, FaSSIF o.P. 24 h, 35° C. [4] | with Panzytrat 24 h, 35° C. [4] | without Panzytrat 24 h, 35° C. [4] | before splitting 0 h [4] | also measured |
| --- | --- | --- | --- | --- | --- | --- | --- | --- | --- | --- | --- | --- | --- | --- | --- | --- | --- | --- | --- | --- | --- |
|  |  |  |  |  |  | CC(O)CC(=O)OCC(CO)OC(=O)CC(C)O (centres unmarked) [3-BHB-DG, diglyceride of 3-hydroxybutyric acid] | cleaved by pancreatin to the free 3-hydroxybutyric acid | 59.84 | 60.93 | 60.17 | 44.09 % area | 37.01 % area | 55.85 % area | 55.85 % area | 60.17 % area | 61.38 % area | 60.93 % area | 61.38 | 60.93 | 60.17 | change of content in FaSSGF medium [3]: significant decrease |
|  |  |  |  |  |  | CC(O)CC(=O)OCC(COC(=O)CC(C)O)OC(=O)CC(C)O (centres unmarked) [3-BHB-TG, triglyceride of 3-hydroxybutyric acid] | cleaved by pancreatin to the free 3-hydroxybutyric acid | 13.38 | 16.79 | 16.40 | 10.12 % area | 7.55 % area | 16.08 % area | 16.08 % area | 16.40 % area | 12.83 % area | 16.79 % area | 12.83 | 16.79 | 16.40 | change of content in FaSSIF medium with porcine pancreatic lipase ([2]; FaSSIF, pH 6.5, 35° C., 24 hours, 1 wt.-% PPL type II): slight decrease; change of content in FaSSGF medium [3]: significant decrease; change of content in FaSSIF medium [4]: slight decrease |
|  |  |  |  |  |  | CC(O)CC(=O)OCC(O)CO (centres unmarked) [3-BHB-MG, monoglyceride of 3-hydroxybutyric acid] | cleaved by pancreatin to the free 3-hydroxybutyric acid | 15.98 | 12.26 | 13.52 | 18.41 % area | 21.09 % area | 18.28 % area | 18.28 % area | 13.52 % area | 14.34 % area | 12.26 % area | 14.34 | 12.26 | 13.52 |  |
| 0.31 % area | 0.31 % area | 0.07 % area | 0.11 % area | 0.16% | 0.18% | CCOC(=O)CC(C)O (centres unmarked) [3-BHB-ethyl, 3-hydroxybutyric acid ethyl ester] |  |  |  |  |  |  |  |  | 0.16 % area | 0.20 % area | 0.18 % area | 0.20 | 0.18 | 0.16 | with enzyme, 24 h, 35° C. ([6]; pig, 24 h, 10 wt.-%, pH 6.5): 0.12% |
|  |  |  |  |  |  | CC(O)CC(=O)OC(C)CC(=O)O (centres unmarked) [3-BHB-dimer-FS, dimer of 3-hydroxybutyric acid] |  | 0.17 | 0.00 | 0.00 | 2.51 % area | 3.25 % area |  |  |  | 0.17 % area |  | 0.17 | 0.00 | 0.00 |  |
| 0.38 % area | 0.38 % area | 0.81 % area | 0.51 % area | 0.07% | 0.05% | OCC(O)CO [glycerol] |  |  |  |  |  |  |  |  | 0.07 % area | 0.07 % area | 0.05 % area | 0.07 | 0.05 | 0.07 | with enzyme, 24 h, 35° C. ([6]; pig, 24 h, 10 wt.-%, pH 6.5): 0.08% |
| 0.43 % area | 0.43 % area | 26.21 % area | 18.85 % area | 0.04% | 0.02% | CC(O)CC(=O)O (centres unmarked) [3-BHB-FS, 3-hydroxybutyric acid] |  |  |  |  |  |  |  |  | 0.04 % area | 2.60 % area | 0.02 % area | 2.60 | 0.02 | 0.04 | change of content in FaSSGF medium ([5]; pH 1.6): strong increase; change of content in FaSSIF medium with porcine pancreatic lipase ([6]; pH 6.5): slight increase; with enzyme, 24 h, 35° C. ([6]; pig, 24 h, 10 wt.-%, pH 6.5): 1.79%; duration of ketosis [7]: about three to four; conversion or cleavage, free acid formed ([4]; FaSSIF conditions using Panzytrat): 2.6%; change of content in FaSSIF medium [4]: slight increase |
|  |  |  |  |  |  | CC(O)CC(=O)OC(C)CC(=O)OCC(CO)OC(=O)CC(C)O (centres unmarked) [3-BHB-dimer-DG, diglyceride of the dimer of 3-hydroxybutyric acid] |  | 7.07 | 7.61 | 7.56 | 4.22 % area | 3.14 % area | 6.62 % area | 6.62 % area | 7.56 % area | 7.02 % area | 7.61 % area | 7.02 | 7.61 | 7.56 |  |
|  |  |  |  |  |  | CC(O)CC(=O)OC(C)CC(=O)OCC(O)CO (centres unmarked) [3-BHB-dimer-MG, monoglyceride of the dimer of 3-hydroxybutyric acid] |  | 0.16 | 0.44 | 0.42 | 0.22 % area | 0.16 % area | 0.39 % area | 0.39 % area | 0.42 % area |  | 0.44 % area | 0.00 | 0.44 | 0.42 |  |
|  |  |  |  |  |  | CC(O)CC(=O)OC(C)CC(=O)O (centres unmarked) [3-BHB dimer, dimer of 3-hydroxybutyrate] |  |  |  |  |  |  |  |  |  |  |  |  |  |  | before splitting [5]: 0.71 % area; share in chromatogram, FaSSGF m.P. 24 h, 35° C. [5]: 0.45 % area; share in chromatogram, FaSSGF o.P. 24 h, 35° C. [5]: 0.35 % area; share in chromatogram, before splitting [5]: 0.71 % area; before splitting 0 h [8]: 0.70; share in chromatogram, FaSSIF 0 h, Start [8]: 0.70 % area; share in chromatogram, FaSSIF m.P. 24 h, 35° C. [8]: 0.72 % area; share in chromatogram, FaSSIF o.P. 24 h, 35° C. [8]: 0.72 % area; with Panzytrat 24 h, 35° C. ([8]; pH 6.5): 0.72; without Panzytrat 24 h, 35° C. ([8]; pH 6.5): 0.72; before splitting 0 h [6]: 0.7%; with enzyme, 24 h, 35° C. ([6]; pH 6.5): 0.71%; without enzyme 24 h, 35° C. ([6]; pH 6.5): 0.72% |

— US12258609B2, “Method for producing glycerides of hydroxycarboxylic acids” (KetoLipix Therapeutics GmbH, priority 2019, dated 2025)
